SMILES strings stand for the structures.

The target in assay [1] is T1, aldose reductase derived from human muscle cells (Homo sapiens, UniProt P15121).
T1 construct: purchased Wako Pure Chemical Industries
Description: Inhibitory activity for aldose reductase (NADPH absorbance at 340 nm, methylglyoxal substrate). It counts as biochemical. As for the experimental part:
(1) Inhibitory activities for aldose reductase of the compounds a and b were measured by the following method. Twenty microliters of 100 mM methylglyoxal was added to 10 μl of the compound a or b (dissolved in a 50% aqueous dimethyl sulfoxide solution) as a sample, 100 μl of 0.2 M phosphate buffer (pH 6.2), 20 μl of 1 mM NADPH (phosphate buffer), 10 μl of a solution of aldose reductase derived from human muscle cells (0.1 U/ml, manufactured by Wako Pure Chemical Industries, phosphate buffer). After 30 seconds passed, change in absorbance of NADPH at 340 nm was determined for 180 seconds. A 50% aqueous dimethyl sulfoxide solution was used as a negative control in place of the sample. In addition, the absorbance was determined using distilled water as a blank of each sample in place of the methylglyoxal solution. The found values are expressed as an average of the values in two experimental values. The inhibitory ratio (%) for aldose reductase was calculated in accordance with the following formula. Inhibitory Ratio (%)=[1-[(ΔAs−ΔAsb)/(ΔAc−ΔAcb)]]×100
Here, ΔAs and ΔAc are changes in absorbance per 1 minute of a sample solution, and a negative control solution, respectively, and ΔAsb and ΔAcb are changes in absorbance per 1 minute of blank of a sample solution, and a negative control solution, respectively.

In assay [2] the test system is RAW 264.7 cells. Briefly: Suppressive activity for NO production induced by LPS (NO2- in medium). It counts as cell-based. The following applies: compound a 1.5, 3, 6, 12 μM; compound b 3, 6, 12, 24 μM; LPS 15 hours. As for the experimental part:
RAW 264.7 cells (ATCC TIB 71) were suspended in Dulbecco's modified Eagle's medium (manufactured by Bio Whittaker, 12-604F) containing 10% fetal bovine serum (manufactured by GIBCO), so as to have a concentration of 4×10^5 cells/ml, and the suspension was put to each well of a 48-well microtiter plate in an amount of 500 μl per well. The cells were cultured at 37° C. in the presence of 5% carbon dioxide gas. After 24 hours, the medium was exchanged with Dulbecco's modified Eagle's medium (manufactured by Bio Whittaker, 12-917F) containing 10% fetal bovine serum (manufactured by GIBCO), 2 mM L-glutamine (manufactured by Life Tech Oriental Co., Ltd., 25030-149) without containing phenol red. The compound a (dimethyl sulfoxide solution) was added to each well so as to have a concentration of 1.5, 3, 6, or 12 μM, or the compound b (dimethyl sulfoxide solution) was added to each well so as to have a concentration of 3, 6, 12, or 24 μM. […] Thereafter, the concentration of NO2^− which was produced by oxidation of NO in the medium was determined. […] Thereafter, absorbance at 540 nm was determined. The concentration of NO2 − in the medium was calculated from a calibration curve prepared from known concentrations of NaNO2. […]

The subject of assay [3] is RAW 264.7 cells. Briefly: Suppressive activity for IL-6 production induced by LPS (sandwich enzyme immunoassay). The assay is classed as cell-based. The following applies: compound a 1.5, 3, 6, 12 μM; compound b 3, 6, 12, 24 μM; LPS 15 hours. As for the experimental part:
RAW 264.7 cells (ATCC TIB 71) were suspended in Dulbecco's modified Eagle's medium (manufactured by Bio Whittaker, 12-604F) containing 10% fetal bovine serum (manufactured by GIBCO) so as to have a concentration of 4×10^5 cells/ml, and the suspension was put to each well of a 48-well microtiter plate in an amount of 500 μl per well. The cells were cultured at 37° C. in the presence of 5% carbon dioxide gas. After 24 hours, the medium was exchanged with Ultra CHO medium (manufactured by Bio Whittaker, 12-724Q). The compound a (dimethyl sulfoxide solution) was added to each well so as to have a concentration of 1.5, 3, 6, or 12 μM, or the compound b (dimethyl sulfoxide solution) was added to each well so as to have a concentration of 3, 6, 12, or 24 μM. After additional 4 hours of culture, a 100 μg/ml aqueous lipopolysaccharide (LPS, manufactured by Sigma, L-2010) solution was added to each well in an amount of 5 μl per well, and the cells were cultured for 15 hours. Thereafter, the supernatant of the medium was collected. The content of interleukin 6 (IL-6) in the supernatant of the medium was determined with a sandwich enzyme immunoassay (manufactured by genzyme TECHNE, 4922). In addition, there were set a group without addition of the compounds a and b as a positive control, and a group without addition of LPS as a negative control. All of the determinations were carried out twice. […]

Assay [4] concerns PC12 cells (CRL-1721) derived from rat adrenal medulla pheochromocytoma, differentiated into neuron-like cells. Briefly: Neuronal protection from NO toxicity (SNP) in NGF-differentiated PC12 cells, MTT. The following applies: 10 μM compound b, 50 μM SNP, 48 hours, control without compound and SNP = 100, SNP alone 59.1. The assay is classed as cell-based. As for the experimental part:
(1) The suppressive activity for NO toxicity of the compound b was assayed in accordance with the following method. PC12 cells (CRL-1721) derived from rat adrenal medulla pheochromocytoma were suspended in DMEM medium (manufactured by Bio Whittaker) containing 10% fetal bovine serum (manufactured by Bio Whittaker) so as to have a concentration of 1×10^5 cells/ml. The suspension was put in each well of a 96-well plate in an amount of 0.1 ml per well, and the cells were cultured at 37° C. in the presence of 5% carbon dioxide gas. After the cells were cultured for 24 hours, the medium was removed and exchanged with DMEM medium containing 10 ng/ml of NGF (manufactured by TAKARA BIO Inc.) and 10% fetal bovine serum. PC12 cells were cultured for 3 days, and differentiated into neuron-like cells. After the culture, the medium was removed and exchanged with DMEM medium containing 10 μM of the compound b, 10 ng/ml of NGF, and 10% fetal bovine serum. […] Solubilized formazan was determined at a wavelength of 590 nm (control wavelength of 630 nm). […] Viability ratio (%) of cells was calculated from MTT found values of each test group by defining the MTT value of the control group (group not containing the compound b and SNP) as 100.

Assay [5] concerns PC12 cells derived from rat adrenal medulla pheochromocytoma. Briefly: Suppressive activity for NO toxicity (SNP) in PC12 cells, MTT. It counts as cell-based. The following applies: 10 μM compound b, 50 μM SNP, 66 hours, control without compound and SNP = 100, SNP alone 48.1. As for the experimental part:
(2) The suppressive activity of the compound b for NO toxicity was assayed in accordance with the following method. PC12 cells derived from rat adrenal medulla pheochromocytoma were suspended in DMEM medium containing 10% fetal bovine serum so as to have a concentration of 1.5×10^5 cells/ml. The suspension was put to each well of a 96-well plate in an amount of 0.1 ml per well, and cultured at 37° C. in the presence of 5% carbon dioxide gas. After 24 hours of culture, the medium was removed, and exchanged with DMEM medium containing 10 μM of the compound b and 10% fetal bovine serum. After the cells were cultured for 2 hours, SNP was added thereto so as to have a concentration of 50 μM, and the cells were cultured for 66 hours. After the termination of the culture, the MTT determination was carried out in the same manner as in item (1) of Example 4, and the viability ratio (%) of cells was calculated. All of the determinations were carried out three times.

As to `CC12CCC(O)C(C)(C)C1Cc1c(O)ccc(C(=O)/C=C/c3ccc(O)cc3)c1O2` (single isomer, unassigned) [Compound a, (E)-1-(5,6,7,8,8a,10a-hexahydro-1,7-dihydroxy-8,8,10a-trimethyl-9H-xanthen-4-yl)-3-(4-hydroxyphenyl)-2-propen-1-one], the “Inhibitory Ratio (%) for Aldose Reductase” value worked out at 33.3% in assay [1] (final concentration 2.5 μM), 48.4% in assay [1] (final concentration 5 μM), 65.7% in assay [1] (final concentration 10 μM) and 77.2% in assay [1] (final concentration 20 μM). In addition, the “Suppression of induction for NO production by LPS (NO2- concentration in medium, FIG. 7)” value in the assay with RAW 264.7 cells [2] was “supppressed the induction for NO production by LPS in a concentration-dependent manner”. Also, in the assay with RAW 264.7 cells [3], the “Inhibition of induction of IL-6 production by LPS (IL-6 in supernatant, FIG. 8)” value is reported as “inhibited the induction of IL-6 production by LPS in a concentration-dependent manner”.

In the case of `CC(C)=CCCC1(C)Oc2c(C(=O)/C=C/c3ccc(O)cc3)ccc(O)c2CC1O` (single isomer, unassigned) [Compound b, (E)-1-(3,4,-dihydro-3,5-dihydroxy-2-(3-isohexeneyl)-2-methyl-2H-1-benzopyran-8-yl)-3-(4-hydroxyphenyl)-2-propene-1-one], the “Inhibitory Ratio (%) for Aldose Reductase” value came out at 35.1% in assay [1] (final concentration 2.5 μM), 50.6% in assay [1] (final concentration 5 μM), 66.8% in assay [1] (final concentration 10 μM) and 79.1% in assay [1] (final concentration 20 μM). In addition, the figures for the “Viability Ratio (%) of Cells” value in assay [4] and in assay [5] were 87.4% and 91.0%, respectively. Also, the “Suppression of induction for NO production by LPS (NO2- concentration in medium, FIG. 7)” value in the assay with RAW 264.7 cells [2] was “supppressed the induction for NO production by LPS in a concentration-dependent manner”. The “Inhibition of induction of IL-6 production by LPS (IL-6 in supernatant, FIG. 8)” value with RAW 264.7 cells [3] is recorded as “inhibited the induction of IL-6 production by LPS in a concentration-dependent manner”.

(Values after patent publication US7361774B2, “Chalcone compound” (Takara Bio Inc., priority 2002, dated 2008).)
